#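 In this assay, cells in 96-well plates receive the compound at five concentrations for 48 hours. Endpoints are linearly interpolated between the surrounding concentrations. Abbreviation: GI50, concentration required for 50% inhibition of growth. TGI denotes the concentration required for complete inhibition of growth.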
# Legend:
# Test in all cases: growth of human tumour cells (NCI), 48 h
# A549 NSCLC = system: A549 NSCLC
# SR leukemia = system: SR leukemia
# HOP-62 NSCLC = system: HOP-62 NSCLC
# SF-268 CNS = system: SF-268 CNS
# SK-MEL-2 melanoma = system: SK-MEL-2 melanoma
# MDA-MB-468 breast = system: MDA-MB-468 breast
# NCI-H522 lung = system: NCI-H522 lung
# LOX IMVI melanoma = system: LOX IMVI melanoma
# SK-MEL-28 melanoma = system: SK-MEL-28 melanoma
# HCC-2998 colon = system: HCC-2998 colon
# 786-0 renal = system: 786-0 renal
# OVCAR-8 ovarian = system: OVCAR-8 ovarian
# BT-549 breast = system: BT-549 breast
# HT29 colon = system: HT29 colon
# TK-10 renal = system: TK-10 renal
# ACHN renal = system: ACHN renal
# HCT-15 colon = system: HCT-15 colon
# OVCAR-3 ovarian = system: OVCAR-3 ovarian
# KM12 colon = system: KM12 colon
# PC-3 prostate = system: PC-3 prostate
# RPMI-8226 leukemia = system: RPMI-8226 leukemia
# COLO 205 colon = system: COLO 205 colon
# SF-295 CNS = system: SF-295 CNS
# DU-145 prostate = system: DU-145 prostate
# MALME-3M melanoma = system: MALME-3M melanoma
# SK-MEL-5 melanoma = system: SK-MEL-5 melanoma
# IGROV1 ovarian = system: IGROV1 ovarian
# SNB-19 CNS = system: SNB-19 CNS
# SK-OV-3 ovarian = system: SK-OV-3 ovarian
# MDA-MB-231 breast = system: MDA-MB-231 breast
# SN12C renal = system: SN12C renal
# UACC-257 melanoma = system: UACC-257 melanoma
# OVCAR-5 ovarian = system: OVCAR-5 ovarian
# SW-620 colon = system: SW-620 colon
# CAKI-1 renal = system: CAKI-1 renal
# A498 renal = system: A498 renal
# UO-31 renal = system: UO-31 renal
# UACC-62 melanoma = system: UACC-62 melanoma
# NCI-H226 lung = system: NCI-H226 lung
# RXF 393 renal = system: RXF 393 renal
# CCRF-CEM leukemia = system: CCRF-CEM leukemia
# NCI/ADR-RES ovarian = system: NCI/ADR-RES ovarian
# T-47D breast = system: T-47D breast
# HS 578T breast = system: HS 578T breast
# NCI-H23 lung = system: NCI-H23 lung
# OVCAR-4 ovarian = system: OVCAR-4 ovarian
# MCF7 breast = system: MCF7 breast
# U251 CNS = system: U251 CNS
# EKVX NSCLC = system: EKVX NSCLC
# SF-539 CNS = system: SF-539 CNS
# MDA-MB-435 = system: MDA-MB-435
structure (smiles),measurement,setting,value
CCN1CCN(Cc2ccc(C(=O)Nc3cccc(C#Cc4cccc5[nH]nc(N)c45)c3)cc2C(F)(F)F)CC1,GI50,A549 NSCLC,1.3 µM
same,TGI,A549 NSCLC,2.6 µM
same,GI50,SR leukemia,1.78 µM
same,TGI,SR leukemia,4.59 µM
same,GI50,HOP-62 NSCLC,1.73 µM
same,TGI,HOP-62 NSCLC,3.64 µM
same,GI50,SF-268 CNS,1.43 µM
same,TGI,SF-268 CNS,3.33 µM
same,GI50,SK-MEL-2 melanoma,1.47 µM
same,TGI,SK-MEL-2 melanoma,2.93 µM
same,GI50,MDA-MB-468 breast,1.03 µM
same,TGI,MDA-MB-468 breast,2.32 µM
same,GI50,NCI-H522 lung,1.1 µM
same,TGI,NCI-H522 lung,2.4 µM
same,GI50,LOX IMVI melanoma,0.739 µM
same,TGI,LOX IMVI melanoma,1.99 µM
same,GI50,SK-MEL-28 melanoma,1.63 µM
same,TGI,SK-MEL-28 melanoma,3 µM
same,GI50,HCC-2998 colon,1.3 µM
same,TGI,HCC-2998 colon,2.56 µM
same,GI50,786-0 renal,1.47 µM
same,TGI,786-0 renal,2.84 µM
same,GI50,OVCAR-8 ovarian,1.43 µM
same,TGI,OVCAR-8 ovarian,2.8 µM
same,GI50,BT-549 breast,1.64 µM
same,TGI,BT-549 breast,3.06 µM
same,GI50,HT29 colon,1.1 µM
same,TGI,HT29 colon,2.45 µM
same,GI50,TK-10 renal,1.89 µM
same,TGI,TK-10 renal,3.38 µM
same,GI50,ACHN renal,0.598 µM
same,TGI,ACHN renal,1.87 µM
same,GI50,HCT-15 colon,0.721 µM
same,TGI,HCT-15 colon,2.02 µM
same,GI50,OVCAR-3 ovarian,1.18 µM
same,TGI,OVCAR-3 ovarian,2.86 µM
same,GI50,KM12 colon,1.66 µM
same,TGI,KM12 colon,3.27 µM
same,GI50,PC-3 prostate,1.3 µM
same,TGI,PC-3 prostate,2.78 µM
same,GI50,RPMI-8226 leukemia,1.59 µM
same,TGI,RPMI-8226 leukemia,3.92 µM
same,GI50,COLO 205 colon,1.19 µM
same,TGI,COLO 205 colon,2.72 µM
same,GI50,SF-295 CNS,1.43 µM
same,TGI,SF-295 CNS,2.82 µM
same,GI50,DU-145 prostate,1.53 µM
same,TGI,DU-145 prostate,3.12 µM
same,GI50,MALME-3M melanoma,0.509 µM
same,TGI,MALME-3M melanoma,1.82 µM
same,GI50,SK-MEL-5 melanoma,1.54 µM
same,TGI,SK-MEL-5 melanoma,2.9 µM
same,GI50,IGROV1 ovarian,0.965 µM
same,TGI,IGROV1 ovarian,2.48 µM
same,GI50,SNB-19 CNS,1.95 µM
same,TGI,SNB-19 CNS,3.63 µM
same,GI50,SK-OV-3 ovarian,2.19 µM
same,TGI,SK-OV-3 ovarian,4.56 µM
same,GI50,MDA-MB-231 breast,0.919 µM
same,TGI,MDA-MB-231 breast,2.14 µM
same,GI50,SN12C renal,1.18 µM
same,TGI,SN12C renal,2.48 µM
same,GI50,UACC-257 melanoma,1.47 µM
same,TGI,UACC-257 melanoma,2.86 µM
same,GI50,OVCAR-5 ovarian,1.47 µM
same,TGI,OVCAR-5 ovarian,3.03 µM
same,GI50,SW-620 colon,1.23 µM
same,TGI,SW-620 colon,2.81 µM
same,GI50,CAKI-1 renal,1.45 µM
same,TGI,CAKI-1 renal,2.78 µM
same,GI50,A498 renal,2.54 µM
same,TGI,A498 renal,4.21 µM
same,GI50,UO-31 renal,1.43 µM
same,TGI,UO-31 renal,2.93 µM
same,GI50,UACC-62 melanoma,1.32 µM
same,TGI,UACC-62 melanoma,2.62 µM
same,GI50,NCI-H226 lung,1.19 µM
same,TGI,NCI-H226 lung,3.6 µM
same,GI50,RXF 393 renal,1.1 µM
same,TGI,RXF 393 renal,2.49 µM
same,GI50,CCRF-CEM leukemia,1.6 µM
same,TGI,CCRF-CEM leukemia,3.62 µM
same,GI50,NCI/ADR-RES ovarian,1.8 µM
same,TGI,NCI/ADR-RES ovarian,4.04 µM
same,GI50,T-47D breast,2.25 µM
same,TGI,T-47D breast,6.18 µM
same,GI50,HS 578T breast,2.14 µM
same,TGI,HS 578T breast,6.68 µM
same,GI50,NCI-H23 lung,1.41 µM
same,TGI,NCI-H23 lung,2.76 µM
same,GI50,OVCAR-4 ovarian,1.04 µM
same,TGI,OVCAR-4 ovarian,5.3 µM
same,GI50,MCF7 breast,1.61 µM
same,TGI,MCF7 breast,3.05 µM
same,GI50,U251 CNS,1.51 µM
same,TGI,U251 CNS,2.85 µM
same,GI50,EKVX NSCLC,1.35 µM
same,TGI,EKVX NSCLC,2.79 µM
same,GI50,SF-539 CNS,0.533 µM
same,TGI,SF-539 CNS,1.76 µM
same,GI50,MDA-MB-435,1.23 µM
same,TGI,MDA-MB-435,2.5 µM

# Source: PubChem BioAssay (NCI)
